Results from the NIST ThermoML archive (doi:10.1016/j.jct.2015.12.020).
Where “and” joins values, the source holds several entries; their conditions need not be identical. Equal entries are not always repeated. ± gives the expanded uncertainty stated by the source.

Tests used:
[1] = molar enthalpy of vaporization or sublimation; details: 298.15 K; Crystal; Static calorimetry
[2] = Crystal, Calculated from knudsen effusion weight loss

Cc1nnc(S)[nH]c1=O [6-aza-2-thiothymine]
molar enthalpy [1]: 28.7 ± 0.669 kcal/mol

Cc1n[nH]c(=O)[nH]c1=O [6-azathymine]
molar enthalpy [1]: 26.1 ± 0.55 kcal/mol

O=c1cn[nH]c(=O)[nH]1 [6-azauracil]
vapor or sublimation pressure ([2]; 377.16 K): 0.00012 ± 0.0001 kPa and 0.000109 ± 0.0001 kPa
vapor or sublimation pressure ([2]; 379.12 K): 0.000138 ± 0.0001 kPa and 0.000142 ± 0.0001 kPa and 0.000131 ± 0.0001 kPa
vapor or sublimation pressure ([2]; 381.1 K): 0.000167 ± 0.0001 kPa and 0.000164 ± 0.0001 kPa
vapor or sublimation pressure ([2]; 383.16 K): 0.000205 ± 0.0001 kPa and 0.000198 ± 0.0001 kPa and 0.000227 ± 0.0001 kPa
vapor or sublimation pressure ([2]; 385.1 K): 0.000252 ± 0.0001 kPa and 0.000229 ± 0.0001 kPa and 0.000269 ± 0.0001 kPa
vapor or sublimation pressure ([2]; 387.09 K): 0.000301 ± 0.0001 kPa and 0.000282 ± 0.0001 kPa
vapor or sublimation pressure ([2]; 389.15 K): 0.00037 ± 0.0001 kPa and 0.000355 ± 0.0001 kPa and 0.000413 ± 0.0001 kPa
vapor or sublimation pressure ([2]; 391.1 K): 0.000452 ± 0.0001 kPa and 0.000422 ± 0.0001 kPa and 0.000477 ± 0.0001 kPa
vapor or sublimation pressure ([2]; 393.1 K): 0.000538 ± 0.0001 kPa and 0.000515 ± 0.0001 kPa and 0.000575 ± 0.0001 kPa
vapor or sublimation pressure ([2]; 395.15 K): 0.00061 ± 0.0001 kPa and 0.000596 ± 0.0001 kPa and 0.000684 ± 0.0001 kPa
vapor or sublimation pressure ([2]; 397.13 K): 0.000756 ± 0.0001 kPa and 0.000711 ± 0.0001 kPa and 0.000812 ± 0.0001 kPa
vapor or sublimation pressure ([2]; 399.12 K): 0.000901 ± 0.00011 kPa and 0.000859 ± 0.00011 kPa and 0.000945 ± 0.00011 kPa
molar enthalpy [1]: 28.2 ± 0.502 kcal/mol
